Data on 6 compounds can be found in patent US9968574B2, “Treatment of MCI and Alzheimer's disease” (The University of Kentucky Research Foundation, priority 2009, dated 2018).

“Also recorded” adds a separate entry of the source. Where two headings read alike, the source gives them in different places.

In series [1] the test system is Human astrocytoma cells. As to the kind of experiment: Inflammatory cytokine ELISAs in astrocytoma cultures. The note with it: for IL-1 secreted in the medium / IL-6 secreted in the medium / TNF-α secreted in the medium: 24 hours. The class given is cell-based. The protocol: Following exposure medium was collected from each well and levels of inflammatory cytokines ([…], TNF-α, TGF-β and […]) were determined using commercially available ELISAs.
It was reported that inflammatory response elements (cytokines) are elevated in Alzheimer's disease patients. The inventors tested the nifedipine mix and individual analogs in astrocytoma cultures. Human astrocytoma cells were plated at 2.5×10^5 cells/well in 6 well culture plates and were grown for 24 hours. […] Three 6-well plates were subjected to each treatment. Following treatment, medium was collected from each well and levels of IL-1β, IL-6, TNF-α and TGF-β were measured using commercially available ELISAs.
Using a similar procedure to that described in Example 3, NFD-L1 was tested in astrocytoma cultures.

For series [2] the following is noted: mouse, in vivo. The text has this:
(§1) Based on the in vitro data described above, the inventors initiated an acute exposure study in 3 month old C57-Black-6 (C57BL/6) mice.

The target of series [3] is T1, beta secretase (BACE) (Homo sapiens, UniProt P56817).
T1 construct: purchased Invitrogen
As to the kind of experiment: BACE activity, fluorescent substrate and purified recombinant BACE (Invitrogen kit). The class given is biochemical. The method, then:
BACE activity was measured using a fluorescent substrate and purified recombinant BACE as part of a commercial kit from Invitrogen.
Using a similar procedure as described in Example 8, NFD-L1 was tested for inhibition of BACE activity.

In series [4] the test system is C57/B16 mice. As to the kind of experiment: Brain Aβ1-40 in mice given nitroso-nifedipine IP, Covance ELISA. The class given is in vivo, mouse. The note with it: 35 mg/kg IP, 3 days. The method, then:
The animals were sacrificed 15 minutes following the final injection. Brains were quickly removed, split into hemispheres, and snap frozen in liquid nitrogen. Brains were shipped on dry ice and maintained at −80° C. until used for analysis. One hemisphere of each brain was homogenized in diethylamine (200 mg wet weight/mL) containing complete protease inhibitors using a Dounce homogenizer. Homogenate was centrifuged at 16,000×g for 30 minutes and 50 μL soluble protein subjected to Aβ1-40 quantification using a Covance ELISA per manufacturer's instructions. Results are expressed as % vehicle treated animals.

Series [5] deals with mice. Nature of the series: Aβ and Aβ processing proteins in mice, ELISA and Western blot. The class given is in vivo, mouse. The note with it: IP injections (nitroso-nifedipine 35 mg/kg, 3 days). The protocol: It is contemplated that increased ADAM-10 levels lead to increased cleavage at the alpha secretase position of APP, minimizing generation of Aβ.
The effects of NFD-L1 on levels of enzymes involved in Aβ processing in vivo were determined using a similar procedure to that described in Example 15.

Series [6] concerns H4 neuroglioma cultures. Nature of the series: Survival of H4 cells, MTT reduction. The class given is cell-based. The note with it: increasing concentrations, 16 hours. The method, then: Specifically, H4 neuroglioma cultures were plated at a density of 2.5×10^5 cells/well and allowed to attach overnight. […] Following treatment, MTT was added at a final concentration of 0.5 mg/mL and cultures incubated for 30 minutes. Following MTT treatment, medium was removed and the formazan crystals generated by mitochondrial conversion of MTT were dissolved in DMSO and absorbance was measured at 650 nm. Data are reported as mean±SEM % control MTT reduction (FIG. 21).
Background: Tetrazolium assays rely on reduction of a dye to a coloured formazan, in cell work by metabolically active cells.

Series [7] has as its system H4 neuroglioma cultures that overexpress APP. Nature of the series: Levels of enzymes involved in Aβ processing in H4 cultures overexpressing APP, immunohistochemistry. It counts as cell-based. The protocol: Following treatment, cultures were rinsed three times in PBS and fixed in 70% methanol/30% acetone for 30 minutes at −20° C. Cultures were then subjected to immunohistochemistry for BACE, PS-1, GPCR-3, nicastrin, and ADAM (the enzyme responsible for alpha secretase cleavage). 30 to 50 cells were imaged in 4-5 fields/dish (3 dishes each treatment) (FIG. 22). […] Alpha secretase cleavage leads to decreased Aβ1-42.
Using a similar procedure as described in Example 13, H4 neuroglioma cultures were treated with NFD-L1 to determine the effects of NFD-L1 on levels of enzymes involved in Aβ processing.

Series [8] in a line: Liver toxicity study: serum alkaline phosphatase in mice. It counts as in vivo, mouse.
Series [9] has as its system H4 neuroglioma cultures. As to the kind of experiment: Calcium influx after KCl depolarization in H4 cultures, Fluo-4 AM confocal microscopy. The class given is cell-based. The note with it: 1 μM nifedipine or […] nitroso-nifedipine, 1 hour. The method, then: Cells were depolarized by addition of 40 μL 100 mM KCl and calcium levels quantified 30 seconds following depolarization by confocal microscopy (n=75-100 cells/dish for 3 dishes/treatment).

The test system of series [10] is H4 neuroglioblastoma cells stably transfected to overexpress amyloid precursor protein (APP). As to the kind of experiment: Aβ1-42 secreted into medium by H4 cells overexpressing APP, ELISA. It counts as cell-based. The protocol:
H4 neuroglioblastoma cells stably transfected with a construct overexpressing amyloid precursor protein (APP) secret Aβ1-42 into the culture medium. […] The Aβ levels in the culture medium were measured using ELISAs (Invitrogen).
We then tested if other calcium channel blockers can inhibit Aβ 1-42 generation in H4 neuroglioma cultures. Known calcium channel blockers such as Amilodpine, Dilitiazem, Felodipine, Isradipine, Nicardipine, and Nimodipine were used in this experiment.
(An ELISA detects its analyte on a solid surface through an enzyme-linked reagent.)

The subject of series [11] is PDS/TTR complex. As to the kind of experiment: PDS/TTR complex expressed into culture medium by choroid plexus epithelial cells, Western blot. The note with it: control epithelial cells, 5 μM acrolein, 72 hours. It counts as cell-based, human. Background: A western blot detects proteins with antibodies after separation by electrophoresis.
Procedure: For these experiments, primary cultures of choroid plexus epithelial cells were established from short post mortem interval autopsies using established methods. AD and normal control cultures were grown to confluence in MEM growth medium containing 2% fetal bovine serum and 1% epithelial growth factor (EGF). Normal control cultures were switched to Opti-MEM containing N2 supplement and were treated with vehicle (controls) or with 5 μM acrolein for 72 hours. […] After treatment, medium was collected from each flask and was desalted using PD-10 columns. The eluted proteins were then freeze-dried, resuspended in 25 μl water and analyzed using Western blot analysis and antibodies specific to PDS and TTR.
The amount of PDS/TTR secreted into the culture medium by each culture was determined by Western blot analysis as described above.
For series [12], the system named is PDS/TTR complex. Nature of the series: PDS/TTR-positive epithelial cells by immunostaining. The note with it: acrolein alone. It counts as cell-based, human. An excerpt:
In addition, immunostaining was used to determine the PDS/TTR-positive cells and the numbers of PDS/TTR-positive cells from treated and untreated cell cultures were counted and compared.

The subject of series [13] is orphan G-coupled receptor protein 3 (GPCR-3). The note with it: H4 cells, 1 μM (0.5 μM T3/0.5 μM T4), 16 hours. The protocol:
Levels of GPCR-3 were measured using Western blot analysis using a GPCR-3 specific antibody.

Series [14] has the same test system. The note with it: mice of Example 10. The method, then: as §1
In addition, GPCR-3 levels were determined in the C57BL/6 mice described above in Example 10 using Western blot analysis.

The subject of series [15] is C57/B16 mice. Nature of the series: EAAT2 in tissue of treated mice, Western blot. It counts as in vivo, mouse. The note with it: 25 mg/kg, 3 days.

T1 sequence (P56817 46-501): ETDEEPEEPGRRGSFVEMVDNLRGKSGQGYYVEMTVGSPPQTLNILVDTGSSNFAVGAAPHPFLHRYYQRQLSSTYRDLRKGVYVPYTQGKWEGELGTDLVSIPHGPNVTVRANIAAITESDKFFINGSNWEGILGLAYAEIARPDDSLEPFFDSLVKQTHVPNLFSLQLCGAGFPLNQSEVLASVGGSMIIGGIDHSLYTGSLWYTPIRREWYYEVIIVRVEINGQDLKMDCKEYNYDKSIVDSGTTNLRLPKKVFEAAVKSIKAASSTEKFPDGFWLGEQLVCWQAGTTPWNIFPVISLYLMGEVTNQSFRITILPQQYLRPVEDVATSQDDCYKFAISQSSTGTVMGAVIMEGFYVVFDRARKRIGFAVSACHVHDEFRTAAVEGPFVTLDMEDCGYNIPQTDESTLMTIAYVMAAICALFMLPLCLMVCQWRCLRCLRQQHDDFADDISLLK

`COC(=O)c1c(C)nc(C)c(C(=O)OC)c1-c1ccccc1[N+](=O)[O-]` [oxidized nifedipine, 2,6-dimethyl-4-(2-nitrophenyl)-3,5-pyridinedicarboxylic acid dimethyl ester]: in series [1], the “IL-1 secreted in the medium” value is “significantly reduced”, the “IL-6 secreted in the medium” value was “significantly reduced” and the “TNF-α secreted in the medium” value is “significantly reduced”. Also, in [2], the “presence in brain extracts (passing the blood-brain barrier)” value is given as “found in all samples analyzed”.
Consider `COC(=O)c1c(C)nc(C)c(C(=O)OC)c1-c1ccccc1N=O` [nitroso-nifedipine, 2,6-dimethyl-4-(2-nitrosophenyl)-3,5-pyridinedicarboxylic acid dimethyl ester], for which, in series [3] (agent alone), the BACE activity result is given as “significant inhibition; also recorded: significantly inhibits”. In [3] (in combination with thyroxine), the BACE activity result is recorded as “significant inhibition”. Also, the “levels of Aβ1-40, % vehicle treated animals” value in [4] is recorded as “significant decrease”. In addition, in series [5], the ADAM-10 level result is listed as “significant increase”, the Aβ1-40 level entry is listed as “significant decrease”, the “cleaved Notch-1 level” value was “significant increase” and the presenilin-1 level result is on record as “significant decrease”. In addition, the “resistance (survival) of H4 cultures compared to nifedipine” value in series [6] is given as “more resistant”. Further, in [7], the ADAM-10 level entry is listed as “significant increase”, the BACE protein level entry is listed as “significant decrease”, the GPCR-3 level result is given as “significant increase” and the PS-1 level entry is on record as “did not significantly alter”. In series [7], the “nicastrin (NCT) level” value is listed as “did not significantly alter”. Also, the “serum alkaline phosphatase level” value in series [8] (35 mg/kg) is “significant decrease”. Moreover, in [8] (any dose), the “serum alkaline phosphatase level” value is listed as “did not significantly increase”. In addition, in series [8] (mice), the liver damage result was “does not induce liver damage”. Further, in series [9], the “Ca influx following depolarization” value is recorded as “significant increase”.
In the case of `COC(=O)c1c(C)nc(C)c2c(=O)[nH]c3ccccc3c12` [NFD-L1], in series [1], the inflammatory cytokine production entry is recorded as “inhibited”, the “IL-1 secreted in the medium” value is recorded as “significantly reduced”, the “IL-6 secreted in the medium” value was “significantly reduced” and the “TNF-α secreted in the medium” value was “significantly reduced”. The “Aβ 1-42 generation” value in series [10] (procedure similar to Example 6) is on record as “inhibited”. Moreover, in series [3] (agent alone), the BACE activity entry is “significantly inhibits”. In series [5], the ADAM-10 level entry is on record as “significant increase”, the Aβ1-40 level entry was “significant decrease”, the “cleaved Notch-1 level” value is given as “significant increase” and the presenilin-1 level entry is recorded as “significant decrease”. In addition, in series [7], the ADAM-10 level entry is “significant increase”, the BACE protein level result is listed as “significant decrease”, the PS-1 level entry is recorded as “significant decrease” and the “nicastrin (NCT) level” value was “significant decrease”.
Regarding `COc1ccc([C@@H]2Sc3ccccc3N(CCN(C)C)C(=O)[C@@H]2OC(C)=O)cc1` [Dilitiazem, reference compound], the “Aβ formation, calcium channel blocker combined with T3/T4” value in series [10] (1 μM with T3/T4, 16 hours) was “significant decrease”.
`C=CC=O` [acrolein]: the “expression of the PDS/TTR complex in culture medium” value in series [11] is on record as “increased”. For the same compound, the “number of PDS/TTR-positive cells, % of untreated control” value in series [12] is listed as “about 600%”.
Regarding `COC(=O)C1=C(C)NC(C)=C(C(=O)OC)C1c1ccccc1[N+](=O)[O-]` [nifedipine, 1,4-dihydro-2,6-dimethyl-4-(2-nitrophenyl)-3,5-pyridinedicarboxylic acid dimethyl ester], the BACE activity entry in series [3] (agent alone) and in series [3] (in combination with thyroxine) was “slightly inhibited” each time. In addition, the GPCR-3 expression level entry in [13] is on record as “significantly reduced”; in series [14], “reduced”. Besides, in series [15], the EAAT2 level result is recorded as “significant increase”.
